Experimental data reported in ChEMBL document CHEMBL3091287, “The ameliorating effects of 2,3-dihydroxy-4-methoxyacetophenone on scopolamine-induced memory impairment in mice and its neuroprotective activity” (Bioorg Med Chem Lett, 2013).
pEC50, pIC50: −log10 of the molar value. Calls of active or inactive are those of the source. The rule behind the calls is not given here.

How the values were obtained:
[1] = Antioxidant activity assessed as hydrogen peroxide radical scavenging activity; assay type: functional
[2] = system: Radical scavenging activity; assay: Antioxidant activity assessed as DPPH radical scavenging activity after 30 mins; assay type: functional
HT-22 [3] = assay: Neuroprotective activity in mouse HT22 cells assessed as inhibition of glutamate-induced increase of intracellular calcium level at 10 to 100 uM after 2 hrs by Fura-2 AM assay; assay type: functional, cell-based
Mus musculus [4] = assay: Toxicity in ICR mouse assessed as motor ability by measuring reduction of scopolamine-induced swimming speed at 1 to 50 mg/kg, po administered 1 hr before scopolamine challenge measured on day 4 by Morris water maze test; assay type: organism-based; set-up: dose 1-50 mg/kg, route oral; conditions: in vivo
Mus musculus [5] = assay: Cognitive-enhancing effect in ICR mouse assessed as reduction of scopolamine-induced increase in mean distance to platform at 1 to 50 mg/kg, po administered 1 hr before scopolamine challenge measured on day 4 by Morris water maze test; assay type: functional, organism-based
Mus musculus [6] = assay: Cognitive-enhancing effect in ICR mouse assessed as reduction of scopolamine-induced escape latency at 50 mg/kg, po administered 1 hr before scopolamine challenge measured on day 2 to 4 during trial 1 and 2 by Morris water maze test; assay type: functional, organism-based; set-up: dose 50 mg/kg
Mus musculus [7] = assay: Cognitive-enhancing effect in ICR mouse assessed as reduction of scopolamine-induced escape latency at 40 mg/kg, po administered 1 hr before scopolamine challenge measured on day 3 during trial 1 and 2 by Morris water maze test; assay type: functional, organism-based; set-up: dose 40 mg/kg
Mus musculus [8] = assay: Cognitive-enhancing effect in ICR mouse assessed as reduction of scopolamine-induced escape latency at 1 to 20 mg/kg, po administered 1 hr before scopolamine challenge measured on day 4 during trial 1 and 2 by Morris water maze test; assay type: functional, organism-based
Mus musculus [9] = assay: Cognitive-enhancing effect in ICR mouse assessed as reduction of scopolamine-induced escape latency at 1 to 20 mg/kg, po administered 1 hr before scopolamine challenge measured on day 3 during trial 1 and 2 by Morris water maze test; assay type: functional, organism-based
HT-22 [10] = assay: Neuroprotective activity in mouse HT22 cells assessed as inhibition of glutamate-induced cell death after 24 hrs by MTT assay; assay type: functional, cell-based
HT-22 [11] = assay: Neuroprotective activity in mouse HT22 cells assessed as inhibition of glutamate-induced cell death at 10 uM after 24 hrs by MTT assay; assay type: functional; conditions: HT-22, 24 h

SMILES | pIC50 [1] | inhibition [1] | pIC50 [2] | inhibition [2] | inhibition (HT-22 [3]) | Activity (Mus musculus [4]) | Activity (Mus musculus [5]) | Activity (Mus musculus [6]) | Activity (Mus musculus [7]) | Activity (Mus musculus [8]) | Activity (Mus musculus [9]) | inhibition (HT-22 [10]) | pEC50 (HT-22 [10]; HT-22, 24 h) | inhibition at 10 µM (HT-22 [11]) [%]
COc1ccc(C(C)=O)c(O)c1O | 4.04 | Dose-dependent effect | 4.01 | Dose-dependent effect | Active | Non-toxic | Active | Active | Active | Active | inactive | Dose-dependent effect | 4.96 | 50
O=C1O[C@H]([C@@H](O)CO)C(O)=C1O [ASCORBIC ACID] | 4.11 |  | 4.45 |  |  |  |  |  |  |  |  |  |  | 
